In patent publication US20250325511A1, “DIETARY BUTYRATE” (SOCIETE DES PRODUITS NESTLE S.A., priority 2019, published 2025):
“Also recorded” adds a separate entry of the source.

Key:
[1] = target: T1, porcine pancreatic lipase (from pancreatin) (Sus scrofa, UniProt P00591)
T1 sequence (P00591 1-450): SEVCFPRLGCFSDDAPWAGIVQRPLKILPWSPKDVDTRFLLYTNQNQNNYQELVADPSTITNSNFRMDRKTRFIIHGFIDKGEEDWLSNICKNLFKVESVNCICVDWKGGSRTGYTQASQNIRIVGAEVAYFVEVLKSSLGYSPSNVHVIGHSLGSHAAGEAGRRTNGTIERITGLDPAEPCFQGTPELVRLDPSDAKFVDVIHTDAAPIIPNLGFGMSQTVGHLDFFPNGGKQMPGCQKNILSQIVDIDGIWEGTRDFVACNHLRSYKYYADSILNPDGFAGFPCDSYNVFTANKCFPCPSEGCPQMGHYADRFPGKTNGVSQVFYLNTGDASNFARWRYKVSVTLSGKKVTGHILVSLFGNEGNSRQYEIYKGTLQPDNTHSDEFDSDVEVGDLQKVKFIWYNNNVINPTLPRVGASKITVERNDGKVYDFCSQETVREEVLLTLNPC
T1 sequence (P02703 23-112 partner): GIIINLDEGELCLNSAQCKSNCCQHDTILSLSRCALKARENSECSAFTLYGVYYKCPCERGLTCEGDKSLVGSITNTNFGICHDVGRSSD

[2] = test system: rabbit gastric lipase followed by porcine pancreatic lipase; experiment: Sequential in vitro digestion SGF (RGL) followed by SIF (PPL), pH-stat

Initial rate of lipolysis ([1]; SIF alone, emulsion with 200 mg fat, pH 6.8, 37° C.): 223 ± 59 µmol/min
Overall extent of lipid digestion ([1]; back titration to pH 11.5, after SIF and SGF-SIF (FIG. 2)): 101.5±0.9%
Initial lipolysis rate in SIF during SGF-SIF digestion ([2]; after 90 min SGF with rabbit gastric lipase, emulsion with 200 mg fat): 44.1 ± 8.8 µmol/min
Lipolysis by gastric lipase ([2]; indicated by decreased total fatty acid release in SIF after RGL pre-exposure): ~60%
Compound: CCCC(=O)OCC(COC(=O)CCC)OC(=O)CCC [tributyrin]
Hydrolysis in the stomach (gastric compartment of the model) ([2]; in words): considerable digestion; also recorded: extensive hydrolysis
